The source of these data is US20060154243A1 (priority 2003, published 2006).

For one experiment, the system named is control serum Blood-bank (commercial negative donor pooled serum). The format is binding, human.
Regarding AFLLFLVLIMLIIFW, the “Control Serum Blood-Bank Looped peptides” value is reported as 0.8 and the “Control serum Blood-bank linear peptides” value worked out at 0.8.
Take CFLAFLLFLVLIMLI: the “Control Serum Blood-Bank Looped peptides” value turned out to be 0.8 and the “Control serum Blood-bank linear peptides” value was 0.6.

The next experiment has as its system rabbit serum obtained by immunizing with SARS-CoV strain Frankfurt 1. The format is binding.
As for ADPKVYPIILRLGSQ, the “Rabbit serum linear peptides” value is listed as 0.4 and the “Rabbit serum looped peptides” value turned out to be 0.3.
The matching figures for AFLLFLVLIMLIIFW: 0.5 and 1.0.
With AFQSTPIVVQMTKLA, the “Rabbit serum linear peptides” value was 0.1 and the “Rabbit serum looped peptides” value turned out to be 0.5.
As to ALHLVDPQIQLTITR, the “Rabbit serum linear peptides” value is 0.5 and the “Rabbit serum looped peptides” value was 0.5.
For AMGQGQNSADPKVYP, the “Rabbit serum linear peptides” value is 0.1 and the “Rabbit serum looped peptides” value was 0.6.
The matching figures for ARAFQSTPIVVQMTK: 0.2 and 0.7.
Turning to ARRNLDSLEARAFQS, the “Rabbit serum linear peptides” value was found to be 0.1 and the “Rabbit serum looped peptides” value was found to be 0.5.
Consider ASNKPHVLEDPCKVQ, for which the “Rabbit serum linear peptides” value is reported as 0.8 and the “Rabbit serum looped peptides” value was 0.9.
Consider CASNKPHVLEDPCKV, for which the “Rabbit serum linear peptides” value is 0.5 and the “Rabbit serum looped peptides” value is 0.8.
In the case of CFLAFLLFLVLIMLI, the “Rabbit serum linear peptides” value is 0.0 and the “Rabbit serum looped peptides” value is 0.6.
On to CISLCSCICTVVQRC, for which the “Rabbit serum linear peptides” value was 0.0 and the “Rabbit serum looped peptides” value is 0.5.
On to DAMGQGQNSADPKVY, for which the “Rabbit serum linear peptides” value came out at 0.3 and the “Rabbit serum looped peptides” value came to 0.4.
In the case of DPKVYPIILRLGSQL, the “Rabbit serum linear peptides” value is recorded as 0.1 and the “Rabbit serum looped peptides” value worked out at 0.4.
The matching figures for DPQIQLTITRMEDAM: 0.1 and 0.3.
As for DSLEARAFQSTPIVV, the “Rabbit serum linear peptides” value is given as 0.1 and the “Rabbit serum looped peptides” value was 0.5.
Take EARAFQSTPIVVQMT: the “Rabbit serum linear peptides” value worked out at 0.1 and the “Rabbit serum looped peptides” value is 0.4.
On to EDAMGQGQNSADPKV, for which the “Rabbit serum linear peptides” value turned out to be 0.6 and the “Rabbit serum looped peptides” value turned out to be 0.5.
Turning to FQSTPIVVQMTKLAT, the “Rabbit serum linear peptides” value worked out at 0.1 and the “Rabbit serum looped peptides” value was 0.6.
Take GQGQNSADPKVYPII: the “Rabbit serum linear peptides” value is reported as 0.4 and the “Rabbit serum looped peptides” value is listed as 0.5.
GQNSADPKVYPIILR: the “Rabbit serum linear peptides” value is on record as 0.1 and the “Rabbit serum looped peptides” value is reported as 0.6.
The matching figures for GSQLSLSMARRNLDS: 0.1 and 0.7.
The matching figures for HLVDPQIQLTITRME: 0.1 and 0.3.
For IILRLGSQLSLSMAR, the “Rabbit serum linear peptides” value is 0.6 and the “Rabbit serum looped peptides” value amounted to 0.5.
As for ILRLGSQLSLSMARR, the “Rabbit serum linear peptides” value is 0.1 and the “Rabbit serum looped peptides” value was 0.7.
Consider IQLTITRMEDAMGQG, for which the “Rabbit serum linear peptides” value worked out at 0.0 and the “Rabbit serum looped peptides” value was determined as 0.2.
In the case of ISLCSCICTVVQRCA, the “Rabbit serum linear peptides” value is 0.1 and the “Rabbit serum looped peptides” value is on record as 0.5.
Consider IVLTCISLCSCICTV, for which the “Rabbit serum linear peptides” value turned out to be 0.1 and the “Rabbit serum looped peptides” value was 0.6.
Turning to IVVQMTKLATTEELP, the “Rabbit serum linear peptides” value worked out at 0.2 and the “Rabbit serum looped peptides” value turned out to be 0.4.
On to KLLIVLTCISLCSCI, for which the “Rabbit serum linear peptides” value worked out at 0.0 and the “Rabbit serum looped peptides” value came to 0.5.
As for KVYPIILRLGSQLSL, the “Rabbit serum linear peptides” value turned out to be 1.8 and the “Rabbit serum looped peptides” value was 0.5.
For the sequence LCSCICTVVQRCASN, the “Rabbit serum linear peptides” value is 0.1 and the “Rabbit serum looped peptides” value stood at 1.1.
Turning to LDSLEARAFQSTPIV, the “Rabbit serum linear peptides” value turned out to be 0.1 and the “Rabbit serum looped peptides” value was 0.5.
As to LEARAFQSTPIVVQM, the “Rabbit serum linear peptides” value was found to be 0.1 and the “Rabbit serum looped peptides” value is recorded as 0.5.
The matching figures for LGSQLSLSMARRNLD: 0.1 and 0.3.
The matching figures for LHLVDPQIQLTITRM: 0.5 and 0.6.
For LIVLTCISLCSCICT, the “Rabbit serum linear peptides” value is 0.1 and the “Rabbit serum looped peptides” value is 0.5.
The matching figures for LLIVLTCISLCSCIC: 0.1 and 0.5.
LRLGSQLSLSMARRN: the “Rabbit serum linear peptides” value was 0.1 and the “Rabbit serum looped peptides” value is reported as 0.5.
For LSLSMARRNLDSLEA, the “Rabbit serum linear peptides” value came out at 0.1 and the “Rabbit serum looped peptides” value turned out to be 0.3.
As to LSMARRNLDSLEARA, the “Rabbit serum linear peptides” value was found to be 0.0 and the “Rabbit serum looped peptides” value was determined as 0.4.
With LTCISLCSCICTVVQ, the “Rabbit serum linear peptides” value is on record as 0.1 and the “Rabbit serum looped peptides” value is recorded as 0.2.
LVDPQIQLTITRMED: the “Rabbit serum linear peptides” value was 0.1 and the “Rabbit serum looped peptides” value was determined as 0.2.
Consider MARRNLDSLEARAFQ, for which the “Rabbit serum linear peptides” value worked out at 0.1 and the “Rabbit serum looped peptides” value is 0.5.
For the sequence MDPNQTNVVPPALHL, the “Rabbit serum linear peptides” value amounted to 1.1 and the “Rabbit serum looped peptides” value amounted to 0.1.
With MGQGQNSADPKVYPI, the “Rabbit serum linear peptides” value was 0.1 and the “Rabbit serum looped peptides” value worked out at 0.6.
As for MKLLIVLTCISLCSC, the “Rabbit serum linear peptides” value stood at 0.1 and the “Rabbit serum looped peptides” value is reported as 0.5.
On to NLDSLEARAFQSTPI, for which the “Rabbit serum linear peptides” value is recorded as 0.2 and the “Rabbit serum looped peptides” value turned out to be 0.4.
The matching figures for NSADPKVYPIILRLG: 0.1 and 0.4.
As for PIILRLGSQLSLSMA, the “Rabbit serum linear peptides” value was 0.1 and the “Rabbit serum looped peptides” value is 0.5.
The matching figures for PIVVQMTKLATTEEL: 0.1 and 0.6.
Turning to PKVYPIILRLGSQLS, the “Rabbit serum linear peptides” value is given as 0.1 and the “Rabbit serum looped peptides” value was determined as 0.4.
Take PQIQLTITRMEDAMG: the “Rabbit serum linear peptides” value is listed as 0.0 and the “Rabbit serum looped peptides” value amounted to 0.2.
For QGQNSADPKVYPIIL, the “Rabbit serum linear peptides” value was 0.1 and the “Rabbit serum looped peptides” value stood at 0.5.
Turning to QIQLTITRMEDAMGQ, the “Rabbit serum linear peptides” value amounted to 0.1 and the “Rabbit serum looped peptides” value stood at 0.2.
On to QLSLSMARRNLDSLE, for which the “Rabbit serum linear peptides” value is on record as 0.1 and the “Rabbit serum looped peptides” value was found to be 0.3.
The matching figures for QLTITRMEDAMGQGQ: 0.1 and 0.4.
As to QNSADPKVYPIILRL, the “Rabbit serum linear peptides” value is listed as 0.1 and the “Rabbit serum looped peptides” value amounted to 0.1.
On to QSTPIVVQMTKLATT, for which the “Rabbit serum linear peptides” value turned out to be 0.0 and the “Rabbit serum looped peptides” value amounted to 0.6.
With RAFQSTPIVVQMTKL, the “Rabbit serum linear peptides” value was determined as 0.1 and the “Rabbit serum looped peptides” value came to 0.7.
Take RLGSQLSLSMARRNL: the “Rabbit serum linear peptides” value is listed as 0.1 and the “Rabbit serum looped peptides” value came to 2.5.
In the case of RNLDSLEARAFQSTP, the “Rabbit serum linear peptides” value is reported as 0.3 and the “Rabbit serum looped peptides” value is on record as 0.5.
The matching figures for RRNLDSLEARAFQST: 0.3 and 0.5.
For the sequence SADPKVYPIILRLGS, the “Rabbit serum linear peptides” value is on record as 0.1 and the “Rabbit serum looped peptides” value was determined as 0.4.
As for SLCSCICTVVQRCAS, the “Rabbit serum linear peptides” value is on record as 0.1 and the “Rabbit serum looped peptides” value turned out to be 0.2.
In the case of SLEARAFQSTPIVVQ, the “Rabbit serum linear peptides” value stood at 0.1 and the “Rabbit serum looped peptides” value is reported as 0.6.
Regarding SLSMARRNLDSLEAR, the “Rabbit serum linear peptides” value is 0.1 and the “Rabbit serum looped peptides” value is on record as 0.4.
Consider SMARRNLDSLEARAF, for which the “Rabbit serum linear peptides” value is on record as 0.1 and the “Rabbit serum looped peptides” value turned out to be 0.4.
For the sequence SNKPHVLEDPCKVQH, the “Rabbit serum linear peptides” value is 0.8 and the “Rabbit serum looped peptides” value is 0.4.
Regarding SQLSLSMARRNLDSL, the “Rabbit serum linear peptides” value is recorded as 0.1 and the “Rabbit serum looped peptides” value amounted to 0.4.
The matching figures for STPIVVQMTKLATTE: 0.1 and 0.5.
The matching figures for TCISLCSCICTVVQR: 0.0 and 0.5.
Consider TPIVVQMTKLATTEE, for which the “Rabbit serum linear peptides” value amounted to 0.1 and the “Rabbit serum looped peptides” value worked out at 0.4.
The matching figures for TTEELPDEFVVVTAK: 0.0 and 0.5.
As to VDPQIQLTITRMEDA, the “Rabbit serum linear peptides” value is on record as 0.0 and the “Rabbit serum looped peptides” value came to 0.4.
VLTCISLCSCICTVV: the “Rabbit serum linear peptides” value came out at 0.0 and the “Rabbit serum looped peptides” value came to 0.4.
For VYPIILRLGSQLSLS, the “Rabbit serum linear peptides” value stood at 0.6 and the “Rabbit serum looped peptides” value came to 1.0.
For the sequence YPIILRLGSQLSLSM, the “Rabbit serum linear peptides” value is 0.2 and the “Rabbit serum looped peptides” value is listed as 0.4.

The next experiment concerns control serum LUMC (pooled serum of ten healthy hospital workers). Type of experiment: binding, human.
Regarding AFLLFLVLIMLIIFW, the “Control serum LUMC linear peptides” value is 0.4 and the “Control serum LUMC looped peptides” value is 0.4.
For CFLAFLLFLVLIMLI, the “Control serum LUMC linear peptides” value was found to be 0.3 and the “Control serum LUMC looped peptides” value was 0.4.
